This note sets out measurements from ChEMBL document CHEMBL5257019, “An Overview of Severe Acute Respiratory Syndrome-Coronavirus (SARS-CoV) 3CL Protease Inhibitors: Peptidomimetics and Small Molecule Chemotherapy” (J Med Chem, 2016).

This assay is described as follows: Inhibition of SARS-CoV-2 3CL protease Q189A mutant by FRET assay. On the set-up: species or system Severe acute respiratory syndrome coronavirus 2.

Take `O=c1c(O[C@@H]2OC(O)[C@@H](O)[C@H](O)[C@@H]2O)c(-c2ccc(O)c(O)c2)oc2cc(O)cc(O)c12` (stereo partly specified): the IC50 came out at 24.1 µM.

Usually IC50 stands for the concentration at which inhibition is half-maximal. Higher therefore signals lower potency.
